In patent US8541434B2, “Ethynyl-substituted pyridine and pyrimidine derivatives and their use in treating viral infections” (Merck Sharp & Dohme Corp., priority 2008, dated 2013):

Test system: HCV replicon cells
Experiment: Cell-based HCV replicon assay (replicon RNA level by real time PCR, Taqman)
Conditions: Hepatitis C virus, 72 h, harvested on day 3, EC90 = concentration necessary to achieve ΔCT=3.2 over the baseline, read-out: EC90 Range
Protocol: Assays Cell-Based HCV Replicon Assay
To measure cell-based anti-HCV activity of the compounds of the present invention, replicon cells were seeded at 5000 cells/well in 96-well collagen I-coated Nunc plates in the presence of the compound of the invention. […] The final concentration of DMSO was 0.5%, fetal bovine serum was 10%, in the assay media. Cells were harvested on day 3 by the addition of 1× cell lysis buffer (Ambion cat #8721). The replicon RNA level was measured using real time PCR (Taqman assay). The amplicon was located in 5B. […] GAPDH RNA was used as endogenous control and was amplified in the same reaction as NS5B (multiplex PCR) using primers and VIC-labeled probe recommended by the manufacturer (PE Applied Biosystem). The real-time RT-PCR reactions were run on ABI PRISM 7900HT Sequence Detection System using the following program: 48° C. for 30 min, 95° C. for 10 min, 40 cycles of 95° C. for 15 sec, 60° C. for 1 min. The ACT values (CT5B-CTGAPDH) were plotted against the concentration of test compound and fitted to the sigmoid dose-response model using GraphPad PRISM software. EC50 was defined as the concentration of inhibitor necessary to achieve ΔCT=1 over the projected baseline; EC90 the concentration necessary to achieve ΔCT=3.2 over the baseline. Alternatively, to quantitate the absolute amount of replicon RNA, a standard curve was established by including serially diluted T7 transcripts of replicon RNA in the Taqman assay. All Taqman reagents were from PE Applied Biosystems. Such an assay procedure was described in detail in e.g. Malcolm et al., Antimicrobial Agents and Chemotherapy 50: 1013-1020 (2006).

Row | Structure (SMILES) | EC90 [nM]
1 | Cc1nc(N)nc(N[C@@H]2C[C@H](CO)[C@@H](O)[C@H]2O)c1C#Cc1nccs1 [Compound 80] | 500 to 5000
2 | Cc1nc(-c2nccs2)ccc1C#Cc1c(Cl)nc(N)nc1N[C@@H]1C[C@H](CO)[C@@H](O)[C@H]1O [Compound 63] | ≤ 500
3 | Nc1nc(Cl)c(C#Cc2ncc(CO)s2)c(N[C@@H]2C[C@H](CO)[C@@H](O)[C@H]2O)n1 [Compound 47] | > 5000
4 | COCCNc1nc(C)c(C#Cc2ccc(OC)nc2OC)c(N[C@@H]2C[C@H](CO)[C@@H](O)[C@H]2O)n1 [Compound 94] | ≤ 500
5 | CCCc1ccc(C#Cc2c(Cl)nc(N)nc2N[C@@H]2C[C@H](CO)[C@@H](O)[C@H]2O)cn1 [Compound 79] | ≤ 500
6 | COc1ccc(C#Cc2c(C)nc(NCC3CC3)nc2N[C@@H]2C[C@H](CO)[C@@H](O)[C@H]2O)c(OC)n1 [Compound 95] | ≤ 500
7 | COc1ccc(C#Cc2c(Cl)nc(NCC(F)(F)F)nc2N[C@@H]2C[C@H](CO)[C@@H](O)[C@H]2O)c(C)n1 [Compound 68] | ≤ 500
8 | COc1ccc(C#Cc2c(Cl)nc(N)nc2N[C@@H]2C[C@H](CO)[C@@H](O)[C@H]2O)c(OC)n1 [Compound 22] | ≤ 500
9 | CCOc1ccc(C#Cc2c(Cl)nc(NCCOC)nc2N[C@@H]2C[C@H](CO)[C@@H](O)[C@H]2O)cn1 [Compound 73] | ≤ 500
10 | COC(=O)c1nc(N)sc1C#Cc1c(Cl)nc(N)nc1N[C@@H]1C[C@H](CO)[C@@H](O)[C@H]1O [Compound 32] | ≤ 500
11 | Nc1nc(Cl)c(C#Cc2cccnc2Cl)c(N[C@@H]2C[C@H](CO)[C@@H](O)[C@H]2O)n1 [Compound 10] | 500 to 5000
12 | Cc1nc(-c2ccc(C#Cc3c(Cl)nc(N)nc3N[C@@H]3C[C@H](CO)[C@@H](O)[C@H]3O)s2)cs1 [Compound 39] | 500 to 5000
13 | Cc1nc(-c2cccs2)ccc1C#Cc1c(Cl)nc(N)nc1N[C@@H]1C[C@H](CO)[C@@H](O)[C@H]1O [Compound 18] | ≤ 500
14 | Cc1ccc(C#Cc2c(Cl)nc(N)nc2N[C@@H]2C[C@H](CO)[C@@H](O)[C@H]2O)cn1 [Compound 5] | 500 to 5000
15 | COc1ccc(C#Cc2c(C)nc(NCC3CC3)nc2N[C@@H]2C[C@H](CO)[C@@H](O)[C@H]2O)cn1 [Compound 92] | ≤ 500
16 | CC(C)Oc1ncccc1C#Cc1c(Cl)nc(N)nc1N[C@@H]1C[C@H](CO)[C@@H](O)[C@H]1O [Compound 14] | 500 to 5000
17 | CNc1nc(Cl)c(C#Cc2ccccc2C(=O)OC(C)C)c(N[C@@H]2C[C@H](CO)[C@@H](O)[C@H]2O)n1 [Compound 50] | 500 to 5000
18 | Nc1nc(Cl)c(C#Cc2ccc(F)nc2)c(N[C@@H]2C[C@H](CO)[C@@H](O)[C@H]2O)n1 [Compound 8] | 500 to 5000
19 | COc1ccc(C#Cc2c(C)nc(NCC(F)(F)F)nc2N[C@@H]2C[C@H](CO)[C@@H](O)[C@H]2O)cn1 [Compound 90] | 500 to 5000
20 | CCOc1ccc(C#Cc2c(C)nc(NCCF)nc2N[C@@H]2C[C@H](CO)[C@@H](O)[C@H]2O)cn1 [Compound 89] | 500 to 5000

Row | Structure (SMILES) | EC90 [nM]
21 | Nc1nc(Cl)c(C#Cc2ccc(-c3ccccc3)cc2)c(N[C@@H]2C[C@H](CO)[C@@H](O)[C@H]2O)n1 [Compound 44] | 500 to 5000
22 | CCNc1nc(C)c(C#Cc2ccc(OC)nc2)c(N[C@@H]2C[C@H](CO)[C@@H](O)[C@H]2O)n1 [Compound 91] | ≤ 500
23 | Cc1nc(OCC(F)(F)F)ccc1C#Cc1c(Cl)nc(NCC(F)(F)F)nc1N[C@@H]1C[C@H](CO)[C@@H](O)[C@H]1O [Compound 70] | 500 to 5000
24 | Nc1nc(Cl)c(C#Cc2ccc(-c3ccccn3)s2)c(N[C@@H]2C[C@H](CO)[C@@H](O)[C@H]2O)n1 [Compound 34] | ≤ 500
25 | CCOc1ccc(C#Cc2c(C)nc(NCC(C)(C)C)nc2N[C@@H]2C[C@H](CO)[C@@H](O)[C@H]2O)cn1 [Compound 85] | ≤ 500
26 | COc1ccc(C#Cc2c(C)nc(NCCCO)nc2N[C@@H]2C[C@H](CO)[C@H]3OC(C)(C)O[C@H]32)cn1 [Compound 83] | 500 to 5000
27 | Cc1csc(C#Cc2c(Cl)nc(N)nc2N[C@@H]2C[C@H](CO)[C@@H](O)[C@H]2O)n1 [Compound 46] | > 5000
28 | Nc1nc(Cl)c(C#Cc2cncs2)c(N[C@@H]2C[C@H](CO)[C@@H](O)[C@H]2O)n1 [Compound 37] | 500 to 5000
29 | CNc1nc(Cl)c(C#Cc2ccc(OC)nc2)c(N[C@@H]2C[C@H](CO)[C@@H](O)[C@H]2O)n1 [Compound 19] | ≤ 500
30 | COCCNc1nc(Cl)c(C#Cc2ccc(OC)nc2)c(N[C@@H]2C[C@H](CO)[C@@H](O)[C@H]2O)n1 [Compound 75] | ≤ 500
31 | Nc1nc(Cl)c(C#Cc2cncnc2)c(N[C@@H]2C[C@H](CO)[C@@H](O)[C@H]2O)n1 [Compound 45] | 500 to 5000
32 | Nc1nc(Cl)c(C#Cc2ccoc2)c(N[C@@H]2C[C@H](CO)[C@@H](O)[C@H]2O)n1 [Compound 11] | 500 to 5000
33 | COc1ccc(C#Cc2c(Cl)nc(NCC(F)(F)F)nc2N[C@@H]2C[C@H](CO)[C@@H](O)[C@H]2O)cn1 [Compound 76] | ≤ 500
34 | CCOc1ccc(C#Cc2c(Cl)nc(N(C)C)nc2N[C@@H]2C[C@H](CO)[C@@H](O)[C@H]2O)cn1 [Compound 23] | > 5000
35 | COc1ccc(C#Cc2c(C)nc(NCc3c(OC)cccc3OC)nc2N[C@@H]2C[C@H](CO)[C@@H](O)[C@H]2O)cn1 [Compound 93] | ≤ 500
36 | Cc1nc(-c2ccccc2)c(C#Cc2c(Cl)nc(NCC(F)(F)F)nc2N[C@@H]2C[C@H](CO)[C@@H](O)[C@H]2O)s1 [Compound 101] | 500 to 5000
37 | Nc1nc(Cl)c(C#Cc2ncc[nH]2)c(N[C@@H]2C[C@H](CO)[C@@H](O)[C@H]2O)n1 [Compound 13] | 500 to 5000
38 | Cc1ccsc1C#Cc1c(Cl)nc(N)nc1N[C@@H]1C[C@H](CO)[C@@H](O)[C@H]1O [Compound 7] | 500 to 5000
39 | CN(C)c1nc(Cl)c(C#Cc2cccs2)c(N[C@@H]2C[C@H](CO)[C@@H](O)[C@H]2O)n1 [Compound 48] | > 5000
40 | CCOc1ccc(C#Cc2c(Cl)nc(NCC(F)(F)F)nc2N[C@@H]2C[C@H](CO)[C@@H](O)[C@H]2O)c(C)n1 [Compound 72] | ≤ 500

Row | Structure (SMILES) | EC90 [nM]
41 | COc1ccc(C#Cc2c(C)nc(NCCSC)nc2N[C@@H]2C[C@H](CO)[C@@H](O)[C@H]2O)cn1 [Compound 84] | ≤ 500
42 | Cn1cncc1C#Cc1c(Cl)nc(N)nc1N[C@@H]1C[C@H](CO)[C@@H](O)[C@H]1O [Compound 30] | > 5000
43 | Nc1nc(Cl)c(C#Cc2ccc(Cl)cc2)c(N[C@@H]2C[C@H](CO)[C@@H](O)[C@H]2O)n1 [Compound 27] | 500 to 5000
44 | COc1ccc(C#Cc2c(C)nc(NCCCO)nc2N[C@@H]2C[C@H](CO)[C@@H](O)[C@H]2O)cn1 [Compound 78] | ≤ 500
45 | Nc1nc(Cl)c(C#Cc2ccc(-c3ccno3)s2)c(N[C@@H]2C[C@H](CO)[C@@H](O)[C@H]2O)n1 [Compound 43] | 500 to 5000
46 | COCCNc1nc(Cl)c(C#Cc2ccc(OCC(F)(F)F)nc2C)c(N[C@@H]2C[C@H](CO)[C@@H](O)[C@H]2O)n1 [Compound 69] | 500 to 5000
47 | CCOc1ccc(C#Cc2c(Cl)nc(NCC(F)(F)F)nc2N[C@@H]2C[C@H](CO)[C@@H](O)[C@H]2O)cn1 [Compound 74] | ≤ 500
48 | COC[C@H]1C[C@@H](Nc2nc(N)nc(Cl)c2C#Cc2ccsc2)[C@H](O)[C@@H]1O [Compound 61] | 500 to 5000
49 | Cc1nc(NCCCO)nc(N[C@@H]2C[C@H](CO)[C@H]3OC(C)(C)O[C@H]32)c1C#Cc1cccs1 [Compound 100] | 500 to 5000
50 | Nc1nc(Cl)c(C#Cc2ccc(C(=O)C(F)(F)F)s2)c(N[C@@H]2C[C@H](CO)[C@@H](O)[C@H]2O)n1 [Compound 40] | 500 to 5000
51 | CCCNc1nc(C)c(C#Cc2ccc(OCC)nc2)c(N[C@@H]2C[C@H](CO)[C@@H](O)[C@H]2O)n1 [Compound 87] | ≤ 500
52 | CNc1nc(Cl)c(C#Cc2ccc(OC)nc2C)c(N[C@@H]2C[C@H](CO)[C@@H](O)[C@H]2O)n1 [Compound 65] | ≤ 500
53 | Cc1nc(-c2ccccc2)c(C#Cc2c(Cl)nc(N)nc2N[C@@H]2C[C@H](CO)[C@@H](O)[C@H]2O)s1 [Compound 35] | ≤ 500
54 | CCNC(=O)c1ncccc1C#Cc1c(Cl)nc(N)nc1N[C@@H]1C[C@H](CO)[C@@H](O)[C@H]1O [Compound 56] | 500 to 5000
55 | COc1ccc(C#Cc2c(Cl)nc(N(C)C)nc2N[C@@H]2C[C@H](CO)[C@@H](O)[C@H]2O)cn1 [Compound 24] | > 5000
56 | COc1ccc(C#Cc2c(Cl)nc(N)nc2N[C@@H]2C[C@H](CO)[C@@H](O)[C@H]2O)c(C)n1 [Compound 3] | ≤ 500
57 | COc1ccc(C#Cc2c(Cl)nc(N)nc2N[C@@H]2C[C@H](CO)[C@@H](O)[C@H]2O)cn1 [Compound 20, (1R,2S,3R,5R)-3-[[2-Amino-6-chloro-5-[2-(2-methoxypyridin-5-yl)ethynyl]-4-pyrimidinyl]amino]-5-(hydroxymethyl)-1,2-cyclopentanediol] | ≤ 500
58 | CCNc1nc(C)c(C#Cc2ccc(OCC)nc2)c(N[C@@H]2C[C@H](CO)[C@@H](O)[C@H]2O)n1 [Compound 88] | ≤ 500
59 | CCOCCNc1nc(C)c(C#Cc2ccsc2)c(N[C@@H]2C[C@H](CO)[C@@H](O)[C@H]2O)n1 [Compound 103] | ≤ 500
